Read-outs that look alike come from different tables or passages of the source.
Legend:
[1] = Pharmacokinetic analysis of multiple doses of sepiapterin (once daily for 7 days, fed subjects); type: in vivo, human; conditions: human, plasma, fed; for AUC(0-t): read-out: AUC0-24; for Cmax: read-out: Cmax
Source text: Methods: Three cohorts of eight fed subjects each were randomized to receive once-daily sepiapterin or placebo for 7 days in a 6:2 ratio. A sentinel dose strategy was also used for administration of the highest sepiapterin dose.

[2] = Food effect on administration of sepiapterin: plasma sepiapterin and BH4 concentrations, fasted vs fed; type: in vivo, human; conditions: sepiapterin 10 mg/kg oral; for concentration at 0 h / concentration at 0.5 h / concentration at 1 h / concentration at 2 h / concentration at 4 h / concentration at 8 h / concentration at 12 h / concentration at 24 h: human, oral, 10 mg/kg; for concentration at 0 h: 0 h (predose)
Description: Method: Subjects received 2 oral doses of sepiapterin (10 mg/kg) separated by 1 week in a fasted and fed state. Subjects were fed a standard high-fat (approximately 50 percent of total caloric content of the meal) and high-calorie (approximately 800 to 1000 calories) meal starting 30 minutes prior to receiving their second oral dose of sepiapterin on Day 8.
Sampling for PK analysis occurred predose on Days 1 and 8 (within 30 minutes before dosing) and 0.5 hr, 1 hr, 2 hr, 4 hr, 8 hr, 12 hr, and 24 hr after the doses on Days 1 and 8. The blood concentrations of sepiapterin and BH4 were analyzed by MNG Labs.

[3] = 5 mg/kg, Day 1, sepiapterin 5 mg/kg once daily
[4] = 5 mg/kg, Day 7, sepiapterin 5 mg/kg once daily
[5] = 20 mg/kg, Day 1, sepiapterin 20 mg/kg once daily
[6] = 20 mg/kg, Day 7, sepiapterin 20 mg/kg once daily
[7] = 60 mg/kg, Day 1, sepiapterin 60 mg/kg once daily
[8] = 60 mg/kg, Day 7, sepiapterin 60 mg/kg once daily
[9] = plasma, fasted, read-out: Concentration in Plasma, Maximum
[10] = plasma, fasted, read-out: Concentration in Plasma, Mean
[11] = plasma, fasted, read-out: Concentration in Plasma, Median
[12] = plasma, fasted, read-out: Concentration in Plasma, Minimum
[13] = plasma, fed (high-fat meal), read-out: Concentration in Plasma, Maximum
[14] = plasma, fed (high-fat meal), read-out: Concentration in Plasma, Mean
[15] = plasma, fed (high-fat meal), read-out: Concentration in Plasma, Median
[16] = plasma, fed (high-fat meal), read-out: Concentration in Plasma, Minimum

SMILES: C[C@H](O)[C@H](O)[C@H]1CNc2nc(N)[nH]c(=O)c2N1 [BH4, Tetrahydrobiopterin]
- Tmax [1, 3]: 4 h
- AUC(0-t) [1, 3]: 994 ng·h/mL
- Cmax [1, 3]: 147 ng/mL
- Tmax [1, 4]: 4 h
- AUC(0-t) [1, 4]: 1070 ng·h/mL
- Cmax [1, 4]: 152 ng/mL
- Tmax [1, 5]: 4 h
- AUC(0-t) [1, 5]: 3030 ng·h/mL
- Cmax [1, 5]: 496 ng/mL
- Tmax [1, 6]: 4 h
- AUC(0-t) [1, 6]: 3720 ng·h/mL
- Cmax [1, 6]: 516 ng/mL
- Tmax [1, 7]: 4.6 h
- AUC(0-t) [1, 7]: 4560 ng·h/mL
- Cmax [1, 7]: 597 ng/mL
- Tmax [1, 8]: 4 h
- AUC(0-t) [1, 8]: 4860 ng·h/mL
- Cmax [1, 8]: 678 ng/mL
- AUC(0-inf) ([1]; Day 1, sepiapterin 5 mg/kg once daily): 1010 ng·h/mL
- AUC(0-inf) ([1]; Day 1, sepiapterin 20 mg/kg once daily): 3080 ng·h/mL
- AUC(0-inf) ([1]; Day 1, sepiapterin 60 mg/kg once daily): 4670 ng·h/mL
- concentration at 0 h [2, 9]: 9 nM
- concentration at 0 h [2, 10]: 7.62 nM
- concentration at 0 h [2, 11]: 7.75 nM
- concentration at 0 h [2, 12]: 5 nM
- concentration at 0.5 h [2, 9]: 66.5 nM
- concentration at 0.5 h [2, 10]: 25.6 nM
- concentration at 0.5 h [2, 11]: 22.9 nM
- concentration at 0.5 h [2, 12]: 13.8 nM
- concentration at 1 h [2, 9]: 223 nM
- concentration at 1 h [2, 10]: 155 nM
- concentration at 1 h [2, 11]: 147 nM
- concentration at 1 h [2, 12]: 98.5 nM
- concentration at 2 h [2, 9]: 618 nM
- concentration at 2 h [2, 10]: 413 nM
- concentration at 2 h [2, 11]: 370 nM
- concentration at 2 h [2, 12]: 271 nM
- concentration at 4 h [2, 9]: 1130 nM
- concentration at 4 h [2, 10]: 624 nM
- concentration at 4 h [2, 11]: 635 nM
- concentration at 4 h [2, 12]: 379 nM
- concentration at 8 h [2, 9]: 457 nM
- concentration at 8 h [2, 10]: 248 nM
- concentration at 8 h [2, 11]: 233 nM
- concentration at 8 h [2, 12]: 90.2 nM
- concentration at 12 h [2, 9]: 162 nM
- concentration at 12 h [2, 10]: 85.9 nM
- concentration at 12 h [2, 11]: 75.3 nM
- concentration at 12 h [2, 12]: 38.9 nM
- concentration at 24 h [2, 9]: 37.4 nM
- concentration at 24 h [2, 10]: 18.3 nM
- concentration at 24 h [2, 11]: 15.3 nM
- concentration at 24 h [2, 12]: 8.5 nM
- concentration at 0 h [2, 13]: 11 nM
- concentration at 0 h [2, 14]: 8.43 nM
- concentration at 0 h [2, 15]: 8.5 nM
- concentration at 0 h [2, 16]: 6 nM
- concentration at 0.5 h [2, 13]: 76.4 nM
- concentration at 0.5 h [2, 14]: 33.3 nM
- concentration at 0.5 h [2, 15]: 30.9 nM
- concentration at 0.5 h [2, 16]: 8.9 nM
- concentration at 1 h [2, 13]: 369 nM
- concentration at 1 h [2, 14]: 166 nM
- concentration at 1 h [2, 15]: 160 nM
- concentration at 1 h [2, 16]: 42.3 nM
- concentration at 2 h [2, 13]: 1200 nM
- concentration at 2 h [2, 14]: 587 nM
- concentration at 2 h [2, 15]: 554 nM
- concentration at 2 h [2, 16]: 299 nM
- concentration at 4 h [2, 13]: 1570 nM
- concentration at 4 h [2, 14]: 1100 nM
- concentration at 4 h [2, 15]: 1010 nM
- concentration at 4 h [2, 16]: 751 nM
- concentration at 8 h [2, 13]: 926 nM
- concentration at 8 h [2, 14]: 520 nM
- concentration at 8 h [2, 15]: 485 nM
- concentration at 8 h [2, 16]: 253 nM
- concentration at 12 h [2, 13]: 261 nM
- concentration at 12 h [2, 14]: 161 nM
- concentration at 12 h [2, 15]: 142 nM
- concentration at 12 h [2, 16]: 90.4 nM
- concentration at 24 h [2, 13]: 40.1 nM
- concentration at 24 h [2, 14]: 19.3 nM
- concentration at 24 h [2, 15]: 16.1 nM
- concentration at 24 h [2, 16]: 12.1 nM
- Geometric mean ratio (fasted/fed, 90% CI) for AUC0-inf ([2]; plasma): 0.58 (0.47 to 0.71)
- Geometric mean ratio (fasted/fed, 90% CI) for Cmax ([2]; plasma): 0.55 (0.45 to 0.68)
- Cmax in the plasma, fed compared to fasted subjects (in words) [2]: much higher
- Increase in overall exposure (AUC0-inf and AUClast), fed compared with fasted state [2]: 1.7 fold

— US20220362249A1, “METHODS FOR TREATING […]” (PTC Therapeutics MP, Inc., priority 2019, published 2022)
